Experimental data reported in publication PMC8622385, “Metabolites of Prickly Rose: Chemodiversity and Digestive-Enzyme-Inhibiting Potential of Rosa acicularis and the Main Ellagitannin Rugosin D” (Plants, 2021).

Assays:
[1] = molecular target: T1, α-amylase from the human pancreas (Homo sapiens, UniProt P04746); assay: HPLC microfractionation with post-column pancreatic α-amylase inhibition (dyed starch); type: biochemical; details: HPLC zone of R. acicularis leaf extract (July sample), 30 s fractions
T1 construct: α-amylase from human pancreas; purchased Lee Biosolutions, Inc. Cat. No. 120-15; host or cells: human pancreas (tissue-derived)
T1 sequence (P04746 16-511): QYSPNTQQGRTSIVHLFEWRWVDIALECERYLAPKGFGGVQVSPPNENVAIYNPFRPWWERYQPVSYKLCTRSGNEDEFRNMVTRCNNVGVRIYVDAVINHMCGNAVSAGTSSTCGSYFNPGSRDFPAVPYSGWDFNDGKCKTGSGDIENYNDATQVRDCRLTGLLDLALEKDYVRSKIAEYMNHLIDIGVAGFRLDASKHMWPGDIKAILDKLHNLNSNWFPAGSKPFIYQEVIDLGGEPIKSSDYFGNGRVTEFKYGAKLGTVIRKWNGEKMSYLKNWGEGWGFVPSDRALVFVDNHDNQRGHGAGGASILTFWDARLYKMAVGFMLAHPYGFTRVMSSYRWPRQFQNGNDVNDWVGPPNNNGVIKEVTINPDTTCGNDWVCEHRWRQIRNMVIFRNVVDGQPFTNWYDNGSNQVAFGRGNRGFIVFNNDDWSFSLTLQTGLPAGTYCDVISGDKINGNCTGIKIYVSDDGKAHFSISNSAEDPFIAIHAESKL
Description: The probe of the extract was separated by HPLC, and fractions were eluted every 30 sec, collected, dried and mixed with pancreatic α-amylase. The hydrolytic activity of amylase was studied spectrophotometrically using starch azure as a substrate.
HPLC-PDA-ESI-tQ-MS conditions (Section 3.4) were used to separate the enlarged volume of R. acicularis leaf extract (July sample; 25 μL). The eluates (60 µL) were collected every 30 s by an automated fraction collector, a Shimadzu FRC-10A, and dried under a stream of N2. The eluate residue was dissolved in 50% methanol (50 µL) and added to 50 µL of water, 2.5 mL of Remazol-Brilliant-Blue-R-dyed starch (2% suspension in phosphate buffer, pH of 6.8) and 500 μL α-amylase from the human pancreas (0.4 U/mL), incubated for 50 min (37 °C) and the absorbance was measured at 620 nm. […] The value of 100% destruction of Remazol-Brilliant-Blue-R-dyed starch (or 0% content of intact starch compound) was measured for the eluate with a retention time of 0.5–1.0 min.

[2] = molecular target: T2, porcine pancreatic lipase (Sus scrofa, UniProt P00591); assay: Simulated gastrointestinal digestion of artificial substrate mixture, lipase activity (4-methylumbelliferone marker, HPLC-DAD); type: biochemical
T2 construct: lipase from porcine pancreas; purchased Sigma-Aldrich L3126 (lipase); C3028 (colipase); host or cells: porcine pancreas (tissue-derived)
T2 sequence (P00591 1-450): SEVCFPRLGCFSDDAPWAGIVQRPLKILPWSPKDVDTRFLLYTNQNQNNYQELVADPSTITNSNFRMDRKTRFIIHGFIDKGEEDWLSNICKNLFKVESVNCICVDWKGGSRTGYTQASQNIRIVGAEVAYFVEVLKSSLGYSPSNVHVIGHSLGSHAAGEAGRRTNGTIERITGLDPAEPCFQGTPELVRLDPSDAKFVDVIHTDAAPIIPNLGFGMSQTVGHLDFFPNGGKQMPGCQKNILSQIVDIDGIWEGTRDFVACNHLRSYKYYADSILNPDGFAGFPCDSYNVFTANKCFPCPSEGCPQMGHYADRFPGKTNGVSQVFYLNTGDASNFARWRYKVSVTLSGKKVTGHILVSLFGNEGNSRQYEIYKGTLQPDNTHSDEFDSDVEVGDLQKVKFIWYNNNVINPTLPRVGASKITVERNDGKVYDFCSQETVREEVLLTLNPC
T2 sequence (P02703 23-112 partner): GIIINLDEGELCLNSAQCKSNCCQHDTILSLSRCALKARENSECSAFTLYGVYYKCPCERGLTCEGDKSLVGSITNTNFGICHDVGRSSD
Source text: To study the inhibitory potential of R. acicularis extracts on the digestive enzymes, we used the standardized static, simulated gastrointestinal digestion method of Minekus et al., based on physiologically relevant conditions of digestion [77]. In brief, the artificial substrate mixture, including ethylidene-p-nitrophenyl-α-D-maltoheptaoside (as a carbohydrate model), Nα-benzoyl-L-arginine-7-amino-4-methylcoumarin hydrochloride (as a protein model) and 4-methylumbelliferyl heptanoate (as a lipid model), was digested with extracts of R. acicularis leaves, flowers, roots and fruits (in doses of 100 μg/mL and 1000 μg/mL) by gastric and intestinal enzymatic and electrolyte mixtures (or juices). […] In a final step, concentrations of specific markers, such as p-nitrophenol, 7-amino-4-methylcoumarin and 4-methylumbelliferone, released from an artificial nutrient mixture, were analyzed by an HPLC-DAD assay. […]
For simulation, the known standardized static gastrointestinal digestion method of Minekus et al. [77] was used with no variation. […] The supernatant was analyzed using an HPLC-DAD assay (Section 3.7) to quantify the level of markers as p-nitrophenol, 7-amino-4-methylcoumarin and 4-methylumbelliferone formed from ethylidene-p-nitrophenyl-α-D-maltoheptaoside, Nα-benzoyl-L-arginine- 7-amino-4-methylcoumarin hydrochloride and 4-methylumbelliferyl heptanoate, respectively. […]

[3] = molecular target: T3, porcine pancreatic amylase (Sus scrofa, UniProt P00690); assay: Simulated gastrointestinal digestion of artificial substrate mixture, amylase activity (p-nitrophenol marker, HPLC-DAD); type: biochemical; details: 1000 μg/mL; control = 100% of enzyme activity
T3 construct: α-amylase from porcine pancreas; purchased Sigma-Aldrich Cat. No. 6255; host or cells: porcine pancreas (tissue-derived)
T3 sequence (P00690 16-511): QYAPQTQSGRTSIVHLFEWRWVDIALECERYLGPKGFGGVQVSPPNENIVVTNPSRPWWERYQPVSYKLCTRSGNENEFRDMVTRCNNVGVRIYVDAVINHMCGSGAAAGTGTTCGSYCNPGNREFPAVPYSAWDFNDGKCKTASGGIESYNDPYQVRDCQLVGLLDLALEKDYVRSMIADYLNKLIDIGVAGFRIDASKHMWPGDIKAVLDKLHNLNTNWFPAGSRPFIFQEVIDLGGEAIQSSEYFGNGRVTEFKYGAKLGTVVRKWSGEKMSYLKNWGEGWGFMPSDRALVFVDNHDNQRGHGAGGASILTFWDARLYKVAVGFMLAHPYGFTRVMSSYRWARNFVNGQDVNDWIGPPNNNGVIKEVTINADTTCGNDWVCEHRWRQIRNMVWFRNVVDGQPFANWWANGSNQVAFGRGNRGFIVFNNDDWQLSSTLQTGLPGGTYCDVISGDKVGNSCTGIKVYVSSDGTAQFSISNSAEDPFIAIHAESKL
Source text: (§1) To study the inhibitory potential of R. acicularis extracts on the digestive enzymes, we used the standardized static, simulated gastrointestinal digestion method of Minekus et al., based on physiologically relevant conditions of digestion. In brief, the artificial substrate mixture, including ethylidene-p-nitrophenyl-α-D-maltoheptaoside (as a carbohydrate model), Nα-benzoyl-L-arginine-7-amino-4-methylcoumarin hydrochloride (as a protein model) and 4-methylumbelliferyl heptanoate (as a lipid model), was digested with extracts of R. acicularis leaves, flowers, roots and fruits (in doses of 100 μg/mL and 1000 μg/mL) by gastric and intestinal enzymatic and electrolyte mixtures (or juices). […] In a final step, concentrations of specific markers, such as p-nitrophenol, 7-amino-4-methylcoumarin and 4-methylumbelliferone, released from an artificial nutrient mixture, were analyzed by an HPLC-DAD assay. […]
(§2) For simulation, the known standardized static gastrointestinal digestion method of Minekus et al. was used with no variation. […] The supernatant was analyzed using an HPLC-DAD assay (Section 3.7) to quantify the level of markers as p-nitrophenol, 7-amino-4-methylcoumarin and 4-methylumbelliferone formed from ethylidene-p-nitrophenyl-α-D-maltoheptaoside, Nα-benzoyl-L-arginine- 7-amino-4-methylcoumarin hydrochloride and 4-methylumbelliferyl heptanoate, respectively. […]

[4] = system: proteases (pepsin, trypsin, chymotrypsin); assay: Simulated gastrointestinal digestion of artificial substrate mixture, protease activity (7-amino-4-methylcoumarin marker, HPLC-DAD); type: biochemical, porcine, bovine; details: doses of 1–1000 μg/mL
Source text: as §1, with “([…])” for “(in doses of 100 μg/mL and 1000 μg/mL)”
as §2

[5] = molecular target: T4, human pancreas α-amylase (Homo sapiens, UniProt P04746); assay: α-Amylase inhibitory activity, microplate spectrophotometric assay; type: biochemical; details: mean ± S.D.; read-out: IC50 against human pancreas α-amylase (converted)
T4 construct: α-amylase from human pancreas; purchased Lee Biosolutions, Inc. Cat. No. 120-15; host or cells: human pancreas (tissue-derived)
T4 sequence (P04746 16-511): T1 sequence (P04746 16-511)
Source text: (§3) The α-amylase-inhibiting potential of rugosin D was studied using a microplate spectrophotometric assay with three mammalian amylases, including α-amylase from porcine pancreas, α-amylase from human saliva and α-amylase from human pancreas.

[6] = molecular target: T5, human saliva α-amylase (Homo sapiens, UniProt P0DUB6); assay: as above; type: biochemical; details: mean ± S.D.; read-out: IC50 against human saliva α-amylase (converted)
T5 construct: α-amylase from human saliva; purchased Sigma-Aldrich Cat. No. 0521; host or cells: human saliva
T5 sequence (P0DUB6 16-511): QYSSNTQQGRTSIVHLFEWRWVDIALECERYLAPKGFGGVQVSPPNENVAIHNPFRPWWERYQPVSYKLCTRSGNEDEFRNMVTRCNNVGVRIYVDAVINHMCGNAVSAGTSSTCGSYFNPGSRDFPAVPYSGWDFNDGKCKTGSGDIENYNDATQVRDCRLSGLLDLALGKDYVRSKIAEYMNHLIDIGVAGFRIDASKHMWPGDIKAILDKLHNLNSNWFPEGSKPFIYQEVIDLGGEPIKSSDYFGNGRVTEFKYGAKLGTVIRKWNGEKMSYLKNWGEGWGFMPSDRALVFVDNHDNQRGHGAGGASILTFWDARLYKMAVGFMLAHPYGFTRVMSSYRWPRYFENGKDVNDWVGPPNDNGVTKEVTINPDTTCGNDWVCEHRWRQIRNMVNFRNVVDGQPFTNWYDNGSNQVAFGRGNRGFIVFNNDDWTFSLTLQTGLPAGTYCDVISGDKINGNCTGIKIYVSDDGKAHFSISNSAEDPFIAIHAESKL
Source text: as §3

[7] = molecular target: T6, porcine pancreas α-amylase (Sus scrofa, UniProt P00690); assay: as above; type: biochemical; details: mean ± S.D.; read-out: IC50 against porcine pancreas α-amylase (converted)
T6 construct: α-amylase from porcine pancreas; purchased Sigma-Aldrich Cat. No. 6255; host or cells: porcine pancreas (tissue-derived)
T6 sequence (P00690 16-511): T3 sequence (P00690 16-511)
Source text: as §3

Compound: O=C(OC[C@H]1O[C@@H](OC(=O)c2cc(O)c(O)c(O)c2)[C@H](OC(=O)c2cc(O)c(O)c(O)c2)[C@@H](OC(=O)c2cc(O)c(O)c(O)c2)[C@@H]1O)c1cc(O)c(O)c(O)c1 [1,2,3,6-tetra-O-galloyl glucose, 1,2,3,6-Tetra-O-galloyl glucose]
- Pancreatic-α-amylase-inhibiting activity of HPLC zone (in words) [1]: medium activity

Compound: CCCCCCCCCCC[C@@H](C[C@@H]1OC(=O)[C@H]1CCCCCC)OC(=O)[C@H](CC(C)C)NC=O [orlistat, reference compound]
- Lipase activity (percentage of initial) after simulated gastrointestinal digestion ([2]; 1000 μg/mL, control = 100% of enzyme activity): 38%

Compound: C[C@H]1O[C@H](O[C@H]2[C@H](O)[C@@H](O)[C@@H](O[C@H]3[C@H](O)[C@@H](O)C(O)O[C@@H]3CO)O[C@@H]2CO)[C@H](O)[C@@H](O)[C@@H]1N[C@H]1C=C(CO)[C@@H](O)[C@H](O)[C@H]1O (some centres unmarked) [Acarbose]
- Amylase activity (percentage of initial) after simulated gastrointestinal digestion [3]: 55%

Compound: O=C(O)[C@H]1O[C@@H](Oc2c(-c3ccc(O)c(O)c3)oc3cc(O)cc(O)c3c2=O)[C@H](O)[C@@H](O)[C@@H]1O [miquelianin, Quercetin-3-O-glucuronide]
- Pancreatic-α-amylase-inhibiting activity of HPLC zone (in words) [1]: medium activity

Compound: O=C(OC1O[C@@H]2COC(=O)c3cc(O)c(O)c(O)c3-c3c(cc(O)c(O)c3O)C(=O)O[C@H]2[C@H](OC(=O)c2cc(O)c(O)c(O)c2)[C@H]1OC(=O)c1cc(O)c(O)c(O)c1)c1cc(O)c(O)c(O)c1 (some centres unmarked) [tellimagrandin II, Tellimagrandin II1]
- Pancreatic-α-amylase-inhibiting activity of HPLC zone (in words) [1]: medium activity

Compound: O=C(O[C@@H]1O[C@@H]2COC(=O)c3cc(Oc4c(C(=O)O[C@@H]5O[C@@H]6COC(=O)c7cc(O)c(O)c(O)c7-c7c(cc(O)c(O)c7O)C(=O)O[C@H]6[C@H](OC(=O)c6cc(O)c(O)c(O)c6)[C@H]5OC(=O)c5cc(O)c(O)c(O)c5)cc(O)c(O)c4O)c(O)c(O)c3-c3c(cc(O)c(O)c3O)C(=O)O[C@H]2[C@H](OC(=O)c2cc(O)c(O)c(O)c2)[C@H]1OC(=O)c1cc(O)c(O)c(O)c1)c1cc(O)c(O)c(O)c1 [Rugosin D]
- Inhibition of protease activity in simulated digestion (in words) [4]: not substantially inhibited
- Inhibition of lipase activity in simulated digestion (in words) ([2]; doses of 1–1000 μg/mL): not substantially inhibited
- Starch protected (starch content as percentage of initial) after reaction with pancreatic amylase [1]: 82–95%
- IC50 [5]: 16.4 µM
- IC50 [6]: 36 µM
- IC50 [7]: 17.1 µM
